# Assay results published in US9856247B2, “4-methyl-dihydropyrimidines for the treatment and prophylaxis of Hepatitis B virus infection” (Hoffmann-La Roche Inc., priority 2012, dated 2018).
# Legend:
# HBV DNA = test: Anti-HBV activity in HepDE19 cells (HBV DNA dot-blot); assay type: cell-based, Hepatitis B virus (HBV); details: Hepatitis B virus, 120 h; HepDE19 cells, five days after compound treatment, concentration that inhibited HBV DNA by 50%; read-out: HepDe19 EC50
# Source text: Cells and culture conditions: HepDE19 (Haitao Guo et al, Journal of Virology, 81, November 2007, 12472-12484; Richeng Mao et al, Journal of Virology, 85, January 2011, 1048-1057) cells were derived from HepG2 (ATCC, American Type Culture Collection) cells through transfection with pTet-off plasmid (Clontech) that expresses the Tet-responsive transcriptional activator and pTREHBVDE plasmid in which HBV pgRNA expression is controlled by a CMV early promoter with a tetracycline-responsive element. The transfected cells were selected with G418 (also known as Genticin, purchased from Invitrogen). […] These cells were maintained in Dulbecco's modified Eagle's medium (DMEM)-F12 medium (Invitrogen) supplemented with 10% fetal bovine serum, 100 U/ml penicillin, and 100 μg/ml streptomycin, 0.5 mg/ml of G418 and 1 μg/ml tetracycline.
# Anti-HBV activity and cytotoxicity: HepDE19 cells were seeded into 96-well plates (3×10^4 cells/well) with tetracycline-free medium and incubated overnight at 37° C. The test or control compounds were serially half-log diluted with medium and added into the plates (the final concentration of DMSO kept at 0.5% in each well). Five days after compound treatment, cells were washed with PBS and lysed with 50 mM Tris-1 mM EDTA-0.2% CA-630 (pH 8.0) at 37° C. for 20 min. After centrifugation to remove nuclei and other debris, the supernatant was transferred into a new plate and incubated with 2M NaOH/20×SSC (3M NaCl, 0.3M Sodium citrate, pH7.0) at rt for 30 min. Then the samples were transferred to nylon membrane and neutralized with 1M Tris (pH7.4)/2M NaCl. The presence of HBV DNA was detected by dot-blot with DIG-labeled HBV specific DNA probe and quantified by dot density. The compound concentrations that inhibited HBV DNA by 50% (EC50) were determined (See Table 1).
# in vitro = details: human
# Experimental: The transfected cells were selected with G418 (also known as Genticin, purchased from Invitrogen). […] These cells were maintained in Dulbecco's modified Eagle's medium (DMEM)-F12 medium (Invitrogen) supplemented with 10% fetal bovine serum, 100 U/ml penicillin, and 100 μg/ml streptomycin, 0.5 mg/ml of G418 and 1 μg/ml tetracycline.
# To determine if the anti-HBV effect of compound is due to cytotoxicity, HepDE 19 cells (5×10^3 cells/well) were seeded into 96-well plates and compounds were treated as described above. […] Four hours after incubation at 37° C., the absorbance at wavelengths of 450 nm and 630 nm (OD450 and OD630) was recorded by a plate reader.
Compound,EC50 (HBV DNA) [µM],CC50 at 5 days (in vitro) [µM]
"CCOC(=O)C1=C(CN2CCOC[C@H]2C(=O)O)NC(c2nccs2)=NC1(C)c1ccc(F)c(F)c1 (stereo partly drawn) [Example 29, (S)-4-[6-(3,4-difluoro-phenyl)-5-ethoxycarbonyl-6-methyl-2-thiazol-2-yl-3,6-dihydro-pyrimidin-4-ylmethyl]-morpholine-3-carboxylic acid]",3.98,≥ 100
"COC(=O)C1=C(CN2CC(F)(F)C[C@H]2c2nnc(C)o2)NC(c2nccs2)=N[C@@]1(C)c1ccc(F)cc1 [Example 57, (S)-6-[(S)-4,4-difluoro-2-(5-methyl-[1,3,4]oxadiazol-2-yl)-pyrrolidin-1-ylmethyl]-4-(4-fluoro-phenyl)-4-methyl-2-thiazol-2-yl-1,4-dihydro-pyrimidine-5-carboxylic acid methyl ester]",1.56,≥ 100
"COC(=O)C1=C(CN2CC(F)(F)C[C@H]2CO)NC(c2nccs2)=N[C@@]1(C)c1ccc(F)cc1 [Example 55, (S)-6-((S)-4,4-difluoro-2-hydroxymethyl-pyrrolidin-1-ylmethyl)-4-(4-fluoro-phenyl)-4-methyl-2-thiazol-2-yl-1,4-dihydro-pyrimidine-5-carboxylic acid methyl ester]",0.067,≥ 100
"COC(=O)C1=C(CN2CCOC[C@H]2C(=O)OC)NC(c2nccs2)=NC1(C)c1ccc(F)c(F)c1 (stereo in doubt) [Example 15, 4-[(S)-6-(3,4-Difluoro-phenyl)-5-methoxycarbonyl-6-methyl-2-thiazol-2-yl-3,6-dihydro-pyrimidin-4-ylmethyl]-morpholine-3-carboxylic acid methyl ester]",0.56,> 100
"COC(=O)C1=C(CN2CCOC[C@H]2C(=O)O)NC(c2nccn2C)=N[C@@]1(C)c1ccc(F)cc1 [Example 30, (S)-4-[(S)-6-(4-fluoro-phenyl)-5-methoxycarbonyl-6-methyl-2-(1-methyl-1H-imidazol-2-yl)-3,6-dihydro-pyrimidin-4-ylmethyl]-morpholine-3-carboxylic acid]",6.77,≥ 100
"COC(=O)C1=C(CN2CC(F)(F)C[C@H]2C(=O)N(C)C)NC(c2nccs2)=N[C@@]1(C)c1ccc(F)cc1 [Example 49, (S)-6-((S)-2-dimethylcarbamoyl-4,4-difluoro-pyrrolidin-1-ylmethyl)-4-(4-fluoro-phenyl)-4-methyl-2-thiazol-2-yl-1,4-dihydro-pyrimidine-5-carboxylic acid methyl ester]",0.29,≥ 100
"COC(=O)C1=C(CN2CCOC[C@H]2CO)NC(c2nccs2)=NC1(C)c1ccc(F)cc1 (stereo partly drawn) [Example 53, 4-(4-fluoro-phenyl)-6-((R)-3-hydroxymethyl-morpholin-4-ylmethyl)-4-methyl-2-thiazol-2-yl-1,4-dihydro-pyrimidine-5-carboxylic acid methyl ester]",1.75,≥ 100
"C[C@@]1(c2ccc(F)cc2)N=C(c2nccs2)NC(CN2CC(F)(F)C[C@H]2C(=O)O)=C1C#N [Example 21, (S)-1-[(S)-5-Cyano-6-(4-fluoro-phenyl)-6-methyl-2-thiazol-2-yl-3,6-dihydro-pyrimidin-4-ylmethyl]-4,4-difluoro-pyrrolidine-2-carboxylic acid]",21,> 100
"COC(=O)C1=C(CN2CC(F)(F)CCC2C(=O)O)NC(c2nccs2)=N[C@@]1(C)c1ccc(F)cc1 (stereo partly drawn) [Example 25, (S)-6-(2-carboxy-5,5-difluoro-piperidin-1-ylmethyl)-4-(4-fluoro-phenyl)-4-methyl-2-thiazol-2-yl-1,4-dihydro-pyrimidine-5-carboxylic acid methyl ester]",1.09,≥ 100
"COC(=O)C1=C(CN2CC(F)(F)C[C@H]2C(=O)OCCN(C)C)NC(c2nccs2)=N[C@@]1(C)c1ccc(F)cc1 [Example 46, (S)-6-[(S)-2-(2-dimethylamino-ethoxycarbonyl)-4,4-difluoro-pyrrolidin-1-ylmethyl]-4-(4-fluoro-phenyl)-4-methyl-2-thiazol-2-yl-1,4-dihydro-pyrimidine-5-carboxylic acid methyl ester]",2.13,≥ 100
"COC(=O)C1=C(CN2CC(F)(F)C[C@H]2C(=O)OC)NC(c2ccc(F)cn2)=NC1(C)c1ccc(F)cc1 (stereo in doubt) [Example 17, 6-(4,4-Difluoro-2-methoxycarbonyl-pyrrolidin-1-ylmethyl)-4-(4-fluoro-phenyl)-2-(5-fluoro-pyridin-2-yl)-4-methyl-1,4-dihydro-pyrimidine-5-carboxylic acid methyl ester]",0.59,90
"COC(=O)C1=C(CN2CCC(F)(F)CC2C(=O)O)NC(c2nccs2)=N[C@@]1(C)c1ccc(F)cc1 (stereo partly drawn) [Example 26, (S)-6-(2-carboxy-4,4-difluoro-piperidin-1-ylmethyl) 4-(4-fluoro-phenyl)-4-methyl-2-thiazol-2-yl-1,4-dihydro-pyrimidine-5-carboxylic acid methyl ester]",1.97,≥ 100
"COC(=O)C1=C(CN2CC(F)(F)C[C@H]2C(=O)O)NC(c2nc(C)cs2)=N[C@@]1(C)c1ccc(F)cc1 [Example 32, (S)-6-((S)-2-carboxy-4,4-difluoro-pyrrolidin-1-ylmethyl)-4-(4-fluoro-phenyl)-4-methyl-2-(4-methyl-thiazol-2-yl)-1,4-dihydro-pyrimidine-5-carboxylic acid methyl ester]",0.13,75
"CC1(c2ccc(F)c(F)c2)N=C(c2nccs2)NC(CN2CCOC[C@H]2C(=O)O)=C1C#N (stereo partly drawn) [Example 22, (S)-4-[5-Cyano-6-(3,4-difluoro-phenyl)-6-methyl-2-thiazol-2-yl-3,6-dihydro-pyrimidin-4-ylmethyl]-morpholine-3-carboxylic acid]",20.4,> 100
"C[C@@]1(c2ccc(F)c(F)c2)N=C(c2nccs2)NC(CN2CC(F)(F)C[C@H]2C(=O)O)=C1C#N [Example 23, (S)-1-[(S)-5-Cyano-6-(3,4-difluoro-phenyl)-6-methyl-2-thiazol-2-yl-3,6-dihydro-pyrimidin-4-ylmethyl]-4,4-difluoro-pyrrolidine-2-carboxylic acid]",7,> 100
"COC(=O)C1=C(CN2CC(F)(F)C[C@H]2C(=O)O)NC(c2sccc2F)=N[C@@]1(C)c1ccc(F)cc1 [Example 41, (S)-6-((S)-2-carboxy-4,4-difluoro-pyrrolidin-1-ylmethyl)-4-(4-fluoro-phenyl)-2-(3-fluoro-thiophen-2-yl)-4-methyl-1,4-dihydro-pyrimidine-5-carboxylic acid methyl ester]",0.285,≥ 100
"COC(=O)C1=C(CN2CC(F)(F)C[C@H]2C(=O)O)NC(c2cc(C)on2)=NC1(C)c1ccc(F)cc1 (stereo partly drawn) [Example 40, 6-((S)-2-carboxy-4,4-difluoro-pyrrolidin-1-ylmethyl)-4-(4-fluoro-phenyl)-4-methyl-2-(5-methyl-isoxazol-3-yl)-1,4-dihydro-pyrimidine-5-carboxylic acid methyl ester]",5.39,≥ 100
"COC(=O)C1=C(COC(C)(C)C(=O)OC)NC(c2nccs2)=NC1(C)c1ccc(F)cc1 (stereo not shown) [Example 1, 4-(4-Fluoro-phenyl)-6-(1-methoxycarbonyl-1-methyl-ethoxymethyl)-4-methyl-2-thiazol-2-yl-1,4-dihydro-pyrimidine-5-carboxylic acid methyl ester]",26.3,> 100
"COC(=O)C1=C(CN2CCOC[C@H]2C(=O)O)NC(c2nccs2)=NC1(C)c1ccc(F)c(F)c1 (stereo partly shown) [Example 16, 4-[6-(3,4-Difluoro-phenyl)-5-methoxycarbonyl-6-methyl-2-thiazol-2-yl-3,6-dihydro-pyrimidin-4-ylmethyl]-morpholine-3-carboxylic acid]",0.25,> 100
"CNC(=O)[C@@H]1CC(F)(F)CN1CC1=C(C(=O)OC)C(C)(c2ccc(F)cc2)N=C(c2nccs2)N1 (stereo partly drawn) [Example 50, 6-((S)-4,4-difluoro-2-methylcarbamoyl-pyrrolidin-1-ylmethyl)-4-(4-fluoro-phenyl)-4-methyl-2-thiazol-2-yl-1,4-dihydro-pyrimidine-5-carboxylic acid methyl ester]",0.606,≥ 100
